Measurements taken from patent publication US11608341B2, “Substituted tetrahydropyrazolo[3,4-d]pyrimidines and tetrahydropyrazolo[4,3-d]pyrimidines as C5A receptor modulators” (Idorsia Pharmaceuticals Ltd., priority 2018, dated 2023).
pIC50: −log10 of the molar value.

Target: T1, C5AR1 (Homo sapiens, UniProt P21730)
T1 construct: host or cells: CHO-K1
T1 sequence (P21730 1-350): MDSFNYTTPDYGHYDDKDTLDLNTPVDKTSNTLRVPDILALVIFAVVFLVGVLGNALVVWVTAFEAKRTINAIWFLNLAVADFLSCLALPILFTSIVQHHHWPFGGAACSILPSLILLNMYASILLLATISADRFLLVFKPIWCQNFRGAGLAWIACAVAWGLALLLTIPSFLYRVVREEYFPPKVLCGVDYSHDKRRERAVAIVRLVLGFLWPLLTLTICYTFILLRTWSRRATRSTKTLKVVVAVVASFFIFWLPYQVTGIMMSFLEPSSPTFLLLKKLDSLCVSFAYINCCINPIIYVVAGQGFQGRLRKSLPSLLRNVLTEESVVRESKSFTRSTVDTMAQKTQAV
Experiment: In vitro assay: antagonism of C5a-induced beta-arrestin recruitment (PathHunter) in CHO-K1 C5AR1 beta-arrestin cell line
Format: cell-based
Settings: antagonistic activity, 1-10 nM C5a agonist, geometric mean where several measurements, read-out: C5aR IC50
Outline: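 Antagonist or DMSO added first, then C5a (1-10 nM, added at 6-fold end concentration), 1.5 h at 37 °C. PathHunter detection reagent was added for 45 min at RT before plate reading. IC50s come from antagonist serial dilutions in nmol/l and are geometric means of several measurements.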

Row | Structure (SMILES) | pIC50
1 | Cn1cc2c(n1)CN(C1CCN(c3c(F)cccc3OC(F)(F)F)CC1)C(=O)N2Cc1ccccc1C(F)(F)F [Example 270] | 7.27
2 | Cn1cc2c(n1)CN(C1CCN(c3c(F)cccc3C(F)(F)F)CC1)C(=O)N2Cc1ccccc1C(F)(F)F [Example 271] | 7.29
3 | COc1nccc(C)c1N1CCC(N2Cc3cn(C)nc3N(Cc3ccccc3C3CC3)C2=O)CC1 [Example 283] | 8.10
4 | Cn1cc2c(n1)N(Cc1ccccc1C1CC1)C(=O)N(C1CCN(c3c(F)cccc3F)CC1)C2 [Example 285] | 8.05
5 | Cc1cccc(F)c1N1CCC(N2C(=O)N(Cc3ccccc3C(F)(F)F)c3cn(C4CCCCO4)nc3C2C)CC1 (stereo not shown) [Example 294] | 7.25
6 | Cn1cc2c(n1)CN(C1CCN(c3c(F)cccc3C(F)F)CC1)C(=O)N2Cc1ccccc1C(F)(F)F [Example 301] | 7.16
7 | Cn1cc2c(n1)CN(C1CCN(c3c(F)cccc3C3CC3)CC1)C(=O)N2Cc1ccccc1C(F)(F)F [Example 304] | 7.46
8 | Cn1cc2c(n1)N(Cc1ccccc1C1CC1)C(=O)N(C1CCN(c3c(F)cccc3C3CC3)CC1)C2 [Example 307] | 7.52
9 | Cn1cc2c(n1)N(Cc1ccccc1C1CC1)C(=O)N(C1CCN(c3c(F)cccc3C(F)F)CC1)C2 [Example 308] | 7.66
10 | Cc1cccc(F)c1N1CCC(N2C(=O)N(Cc3ccccc3C(F)(F)F)c3nn(C4CCCCO4)cc3C2C)CC1 (stereo not shown) [Example 313] | 7.89
11 | CC1c2cn(C3CCCCO3)nc2N(Cc2ccccc2C(F)(F)F)C(=O)N1C1CCN(c2c(F)cccc2C(F)F)CC1 (stereo not shown) [Example 341] | 7.51
12 | CC1c2cn(C3CCCCO3)nc2N(Cc2ccccc2C(F)(F)F)C(=O)N1C1CCN(c2c(F)cccc2Cl)CC1 (stereo not shown) [Example 342] | 7.62
13 | COc1nccc(C(F)F)c1N1CCC(N2C(=O)N(Cc3ccccc3C(F)(F)F)c3nn(C4CCCCO4)cc3C2C)CC1 (stereo not shown) [Example 343] | 7.24
14 | CC1c2cn(C3CCCCO3)nc2N(Cc2ccccc2C2CC2)C(=O)N1C1CCN(c2c(F)cccc2Cl)CC1 (stereo not shown) [Example 365] | 7.35

Other lines, results leading:

Row | pIC50 | Structure (SMILES)
15 | 7.74 | Cn1cc2c(n1)N(Cc1ccccc1C(F)(F)F)C(=O)N(C1CCN(c3c(F)cccc3Cl)CC1)C2 [Example 272]
16 | 7.89 | Cn1cc2c(n1)N(Cc1ccccc1C(F)(F)F)C(=O)N(C1CCN(c3c(F)cccc3F)CC1)C2 [Example 273]
17 | 7.77 | Cn1cc2c(n1)N(Cc1ccccc1C1CC1)C(=O)N(C1CCN(c3c(F)cccc3OC(F)(F)F)CC1)C2 [Example 281]
18 | 8.05 | Cn1cc2c(n1)N(Cc1ccccc1C1CC1)C(=O)N(C1CCN(c3c(F)cccc3Cl)CC1)C2 [Example 284]
19 | 6.40 | CCc1cccc(F)c1N1CCC(N2Cc3cn(C)nc3N(Cc3ccccc3C(F)(F)F)C2=O)CC1 [Example 299]
20 | 7.54 | Cn1cc2c(n1)N(Cc1ccccc1C(F)(F)F)C(=O)N(C1CCN(c3c(F)cccc3C(F)F)CC1)C2 [Example 300]
21 | 7.32 | Cn1cc2c(n1)CN(C1CCN(c3c(F)cccc3Cl)CC1)C(=O)N2Cc1ccccc1C(F)(F)F [Example 302]
22 | 8.00 | Cn1cc2c(n1)N(Cc1ccccc1C(F)(F)F)C(=O)N(C1CCN(c3c(F)cccc3C3CC3)CC1)C2 [Example 303]
